According to the OPERA property sets (Mansouri et al. 2018):
Peptide text beside a SMILES is read from it.

## CCNC(=O)c1cccnc1
  logP: 0.31

## O=C1CCCCO1
  logP: -0.35

## O=[N+]([O-])c1cc[n+]([O-])c2c(F)cccc12
  logP: 1

## CN(C)C1=CC(=O)C(N(C)C)=CC1=O
  logP: 1.03

## Clc1cccc(-c2cccc(Cl)c2Cl)c1Cl
  logP: 6.18

## CCCCCl
  logP: 2.64

## CC(=C(C#N)C#N)c1ccccc1
  logP: 2.1

## CCCC[SiH](C)C
  logP: 3.57

## O=c1n[n+]([O-])ccn1C1OC(CO)C(O)C1O (stereo unspecified)
  logP: -2.43

## CCc1cccc(OCC(=O)O)c1
  logP: 2.25

## O=C(O)C=CC=Cc1ccccc1
  logP: 3.15

## CCCN(CCC)CC(=O)OCn1ncc2c(=O)[nH]cnc21
  logP: 1.27

## CCC(=O)N(C)C
  logP: -0.11

## Cc1c(I)c(=O)n(-c2ccccc2)n1C
  logP: 1.27

## O=C(O)Cc1ccc(C(F)(F)F)cc1
  logP: 2.45

## c1ccc(-c2cccc(-c3ccccc3)n2)cc1
  logP: 4.82

## CCCOCc1ccccc1NC(=O)OCCN1CCCCC1
  logP: 3.34

## CC(=O)Oc1ccccc1C(=O)O
  logP: 1.19

## c1ccc(COc2cccc3cccnc23)cc1
  logP: 3.51

## CC1(C)NC(=O)NC1=O
  logP: -0.48

## O=C(O)COc1ccc2c(c1)CCC2
  logP: 2.33

## CCN(CC)C(=O)[C@@H]1C=C2c3cccc4[nH]cc(c34)C[C@H]2N(C)C1
  logP: 2.95

## N=C(N)c1ccc(N)cc1
  logP: -0.37

## O=C(O)c1cccc(Br)c1
  logP: 2.87

## CCn1c(=O)c2[nH]c(-c3ccccc3)nc2n(CC)c1=O
  logP: 2.93

## O=c1[nH]cc(C(F)(F)F)c(=O)[nH]1
  logP: 0.04

## N#Cc1ccccc1O
  logP: 1.61

## O=C(COc1ccccc1)NNCc1ccccc1
  logP: 2.16

## CCOC(=O)/C(=C\c1ccccc1Cl)C(C)=O
  logP: 2.84

## Nc1ccc(C(=O)Oc2cccc(Cl)c2)c(O)c1
  logP: 3.9

## NC(=O)c1ccc(C(F)(F)F)cc1
  logP: 1.71

## CN(C)C(N(C)C)=S(I)c1cc(Cl)c(Cl)c(Cl)c1 (stereo unspecified)
  logP: 0.74

## Cc1ccc(NC(=O)c2cccnc2)cc1
  logP: 2.08

## O=C(Cn1c(=O)sc2ccc(Cl)cc21)N1CCN(CCO)CC1
  logP: 1.04

## CCOC(=O)c1cc(O)c(O)c(O)c1
  logP: 1.3

## CC(CO)NC1=C(N2CC2)C(=O)C(NC(C)CO)=C(N2CC2)C1=O (stereo unspecified)
  logP: -0.37

## Brc1cc(Br)cc(Br)c1
  logP: 4.51

## Ic1nc(I)c(I)[nH]1
  logP: 2.78

## CCc1ccc2c(c1)C(=O)c1ccc(NC(C)=O)cc1S2(=O)=O
  logP: 3.44

## CCCC(C)C1(CC)C(=O)N=C(O)NC1=O (stereo unspecified)
  logP: 2.1

## O=C(O)c1ccc(I)cc1
  logP: 3.02

## O=C(c1ccco1)C(O)c1ccco1 (stereo unspecified)
  logP: 0.54

## c1ccc(Sc2cccnc2)cc1
  logP: 3.15

## O=[N+]([O-])c1cccc2cc[nH]c12
  logP: 2.63

## CCOc1cc(N)ccc1C(=O)O
  logP: 0.99

## CNc1ncnc2c1ncn2C1CC(O)C(CO)O1 (stereo unspecified)
  logP: -0.19

## NCCc1ccc(O)c(O)c1
  logP: -0.98

## N=C(N)NC(=O)Nc1ccc(Cl)cc1
  logP: 1.78

## c1ccc(-c2nc3ccccc3s2)cc1
  logP: 4.26

## COc1ccccc1N
  logP: 1.18

## CN(C)C(N(C)C)=S(I)c1cccc(Cl)c1 (stereo unspecified)
  logP: -0.17

## CCOP(=S)(OCC)Oc1ccc(S(C)=O)cc1 (stereo unspecified)
  logP: 2.23

## CCCC(=NOCC)C1C(=O)CC2(CCCCC2C)OC1=O (stereo unspecified)
  logP: 3.9

## Cc1ccc(NC2=NCCN2)c(Cl)c1
  logP: 1.8

## Cc1nccnc1CC(C)C
  logP: 1.96

## NCCCc1ccccc1
  logP: 1.83

## Cc1[nH]cnc1CSCCNc1ncc(Cc2ccc3c(c2)OCO3)c(=O)[nH]1
  logP: 2.11

## O=C(O)COc1cccc(C(F)(F)F)c1
  logP: 2.36

## Cc1ccc(N)c(C)c1
  logP: 1.68

## CC(=O)OCc1ccc(Cl)cc1
  logP: 2.59

## Cc1ccc(C=NO)cc1
  logP: 2.4

## CSc1ccc2ccccc2n1
  logP: 3.04

## c1ccc2c(c1)Cc1ccccc1C2
  logP: 4.25

## CCNCc1cccnc1
  logP: 0.76

## C=CC(=O)O
  logP: 0.35

## COc1ccc(-c2cc3cnccc3[nH]2)c(OC)c1
  logP: 3.5

## C=CCC
  logP: 2.4

## CCCC(=O)O[C@]1(C(=O)CCl)[C@@H](C)C[C@H]2[C@@H]3CCC4=CC(=O)C=C[C@]4(C)[C@@]3(F)C(=O)C[C@@]21C
  logP: 3.76

## CCCOC(=O)c1ccccc1
  logP: 3.01

## C#C[C@]1(O)CC[C@H]2[C@@H]3CCC4=CC(=O)CC[C@]4(C)[C@H]3CC[C@@]21C
  logP: 3.11

## C=C(Cl)Cl
  logP: 2.13

## CS(=O)(=O)c1ccc(N)cc1
  logP: -0.12

## Nc1ccc(S(=O)(=O)Nc2ccccc2)cc1
  logP: 1.55

## O=c1cccccc1O
  logP: 0.53

## O=C(O)c1c[nH]c2ccccc12
  logP: 1.99

## CC(=O)Oc1ccccc1C(F)(F)F
  logP: 2.59

## CC1(C)N=C(N)N=C(N)N1c1ccccc1
  logP: 0.28

## CCC1(c2ccccc2)C(=O)NCNC1=O
  logP: 0.91

## O=C(c1ccccc1)n1c(=O)[nH]cc(F)c1=O
  logP: 0.8

## [N-]=[N+]=NC1CC(n2cnc3c(=O)[nH]c(N)nc32)OC1CO (stereo unspecified)
  logP: -0.33

## Cc1ccc(C)c(O)c1
  logP: 2.33

## NC(=O)Nc1ccc(C(O)C(CO)NC(=O)C(Cl)Cl)cc1 (stereo unspecified)
  logP: -0.6

## OCCCCCc1ccccn1
  logP: 1.28

## CC(=O)Nc1ccc(OCC(O)CNC(C)C)cc1 (stereo unspecified)
  logP: 0.79

## CC1=CC(=O)C=CC1=O
  logP: 0.72

## CC(C)(C)C(=O)Nc1ccccc1
  logP: 1.99

## Cc1cc2nc[nH]c2cc1C
  logP: 2.35

## CCC1CCCCN1C(=O)COC(=O)c1ccccc1 (stereo unspecified)
  logP: 2.62

## CNC(=S)N(C)C
  logP: 0.1

## NCCCC[C@H](N)C(=O)O
  logP: -3.05

## S=C=NC(c1ccccc1)(c1ccccc1)c1ccccc1
  logP: 7.02

## CCOP(=S)(OCC)Oc1nc(Cl)n(C(C)C)n1
  logP: 3.82

## O=S(=O)(O)c1cc(O)c2ccccc2c1
  logP: -0.18

## c1ccc(-c2csnn2)cc1
  logP: 2.42

## O=[N+]([O-])c1ccc(O)c2ncccc12
  logP: 1.99

## CSc1nc(NC(C)C)nc(NC(C)C)n1
  logP: 3.51

## COc1ccccc1C(N)=O
  logP: 0.86

## Cc1cc(Br)cnc1NS(=O)(=O)c1ccc(N)cc1
  logP: 2.05

## COc1ccc(NC(=O)NC(=N)N)cc1
  logP: 0.56

## C[C@]12CC[C@H](O)C[C@H]1CC[C@@H]1[C@@H]2CC[C@]2(C)[C@@H](C3=CC(=O)OC3)CC[C@]12O
  logP: 2.64

## O=[N+]([O-])c1ccc(O)c([N+](=O)[O-])c1
  logP: 1.67

## Ic1cn[nH]c1
  logP: 1.7

## CCCOC(=O)c1ccc(N)cc1
  logP: 2.43

## NC(=O)c1ccc(Br)cc1
  logP: 1.76

## ClCc1cccc(CCl)c1
  logP: 2.72

## Clc1ccc(-c2cc(Cl)ccc2Cl)c(Cl)c1
  logP: 6.22

## COC(=O)CCCCC(=O)OC
  logP: 1.03

## Fc1cccc(C2CNCCO2)c1 (stereo unspecified)
  logP: 1.42

## Clc1ccc(Cl)c(-c2ccc(Cl)c(Cl)c2)c1
  logP: 6.23

## CSc1ccc(O)cc1
  logP: 1.78

## N#CCc1ccccc1
  logP: 1.56

## CC(=O)Nc1ccc(O)c(C(C)(C)C)c1
  logP: 2.36

## CCCCCCCCOc1ccc(NC(=O)OCCN2CCCCC2)cc1
  logP: 6.44

## NC(=O)c1ccccc1O
  logP: 1.28

## O=C=O
  logP: 0.83

## Clc1cccnc1
  logP: 1.33

## Oc1ccc2cccc(O)c2c1
  logP: 1.94

## CC(=O)c1ccc[nH]1
  logP: 0.93

## CCCBr
  logP: 2.1

## Nc1c2ccccc2nc2ccccc12
  logP: 2.74

## COc1cccnc1
  logP: 0.99

## COC(=O)C(F)(F)F
  logP: 0.6

## CC(=O)OCC1=C(C(=O)O)N2C(=O)[C@@H](NC(=O)CC#N)[C@H]2SC1
  logP: -0.45

## CCOP(=S)(OCC)Oc1cc(C)nc(N(CC)CC)n1
  logP: 4.85

## O=[N+]([O-])C=Cc1ccc(Cl)cc1Cl
  logP: 3.26

## CCCCCCCCNC(=O)c1[nH]nc(C)c1[N+](=O)[O-]
  logP: 3.48

## CCCCCCOC1OC(CO)C(O)C(O)C1O (stereo unspecified)
  logP: 0.16

## C#CC
  logP: 0.94

## Cc1ncc([N+](=O)[O-])n1CC(C)O (stereo unspecified)
  logP: 0.22

## N#CCC(=O)NC(CO)C(O)c1ccc([N+](=O)[O-])cc1 (stereo unspecified)
  logP: -0.22

## CC(=O)OC(C)(C)C
  logP: 1.76

## CC(Oc1cc(Cl)c(Cl)cc1Cl)C(=O)O (stereo unspecified)
  logP: 3.8

## Cc1ccc(CO)cc1
  logP: 1.58

## O=C1c2ccccc2-c2ccccc21
  logP: 3.58

## Nc1nccc(=O)[nH]1
  logP: -0.99

## COc1ccc(C=CC(=O)O)cc1
  logP: 2.68

## CCOP(=S)(OCC)Oc1ccc(SC)cc1
  logP: 4.16

## NCCCCCc1ccccn1
  logP: 1.32

## CCCCC(=O)OCC(=O)C1(O)CCC2C3CCC4=CC(=O)CCC4(C)C3C(O)CC21C (stereo unspecified)
  logP: 3.62

## CC[C@H](C)[C@H](NC(=O)[C@@H](NC(C)=O)[C@@H](C)O)C(N)=O (Ac-Thr-Ile-NH2)
  logP: -0.86

## O=Cc1ccncc1
  logP: 0.43

## CCCC(NC(C)=O)C(N)=O (stereo unspecified)
  logP: -0.45

## CC1(C)Cc2cccc(O)c2O1
  logP: 2.08

## COc1ccc(S(N)(=O)=O)cc1C(=O)NCC1CCCN1Cc1ccc(F)cc1 (stereo unspecified)
  logP: 2.46

## CC(=O)c1ccc(Cl)cc1
  logP: 2.32

## CC(=O)c1ccc(S(I)=C(N(C)C)N(C)C)cc1 (stereo unspecified)
  logP: -0.85

## C#CCn1cncc1[N+](=O)[O-]
  logP: 0.52

## Nc1cc(Cl)c(Cl)cc1N
  logP: 2

## CSSC
  logP: 1.77

## c1cnc2[nH]ccc2c1
  logP: 1.82

## O=C(O)C1CC1
  logP: 0.63

## OCCCCc1ccccc1
  logP: 2.35

## CN(C)c1cccc(O)c1
  logP: 1.56

## COCC(C)OC (stereo unspecified)
  logP: -0.09

## CNN
  logP: -1.05

## NC(=O)C1CCCN1C(=O)C(Cc1cn(C(=O)OC2CCCCC2)cn1)NC(=O)C1CCC(=O)N1 (stereo unspecified)
  logP: 0.6

## CNC(=O)Oc1ccccc1I
  logP: 1.94

## CCCCOC(=O)c1ccccc1
  logP: 3.84

## CN(C)CCN1C(=O)c2ccccc2N(C)c2ccccc21
  logP: 2.5

## NC(=O)CCNC(=O)C(F)(F)Cn1ccnc1[N+](=O)[O-]
  logP: -0.95

## CCC1(c2ccccc2)CCC(=O)NC1=O (stereo unspecified)
  logP: 1.9

## CCOP(=S)(OCC)SCn1nnc2ccccc2c1=O
  logP: 3.4

## CC1(c2ccccc2)NC(=O)NC1=O (stereo unspecified)
  logP: 1.02

## CS(=O)(=O)c1ccc2ncccc2c1
  logP: 0.7

## C1=c2ccc3cccc4ccc(c2c43)CC1
  logP: 4.92

## CC(C)(C)C(N)Cc1ccccc1 (stereo unspecified)
  logP: 2.91
